# Measurements from patent US7989469B2, “Certain chemical entities, compositions, and methods” (Cytokinetics, Incorporated, priority 2008, dated 2011).
# Tested on: rabbit skeletal muscle myofibril preparations (approximately 90% fast fibers)
# Assay: Activation of fast skeletal muscle fibers: enzymatic activity of myofibril preparations (PUMA assay system)
# Type: biochemical
# Design: unit not given here
# Settings: detergent treated myofibrils at pCa25%, 500 μM ATP; cells marked †: Mean value
# Source text: Fast fiber activators were identified by measuring the enzymatic activity of muscle myofibril preparations using the proprietary PUMA™ (see, e.g., U.S. Pat. Nos. 6,410,254, 6,743,599, 7,202,051, and 7,378,254) assay system. Myofibril preparations consisted of rabbit skeletal muscle (approximately 90% fast fibers) that had been treated with a detergen (triton X-100) to remove cellular membranes and then homogenized. This preparation retained all of the sarcomeric components in a native conformation and the enzymatic activity was still regulated by calcium. Compounds were tested using a myofibril suspension and a level of calcium sufficient to increase enzymatic activity of the myofibrils to 25% of their maximal rate (termed pCa25%). Enzymatic activity was tracked via a kinetic assay with a UV absorption readout. Hits were identified as compounds that increased the rate of enzymatic activity by greater than 40% at 40 μM. Myofibril preparations are calcium regulated and were screened at a level of calcium sufficient to produce a 25% increase in enzymatic rate. Detergent treated myofibrils were incubated with 500 μM ATP and 40 μM compound and a kinetic read of UV absorbance performed. Data was normalized to control wells.
row,Substance,AC1.4 Median
1,"4-[6-chloro-1-(ethylpropyl)-2-hydroxyimidazo[4,5-b]pyridin-7-yl]benzenecarbonitrile",0.405†
2,"6-chloro-1-(ethylpropyl)-7-(2-fluorophenyl)imidazo[4,5-b]pyridin-2-ol",0.230†
3,"6-chloro-1-(ethylpropyl)-7-(3-fluorophenyl)imidazo[4,5-b]pyridin-2-ol",0.248†
4,"6-chloro-1-(ethylpropyl)-7-(4-fluorophenyl)imidazo[4,5-b]pyridin-2-ol",0.074†
5,"6-chloro-1-(ethylpropyl)-7-(4-methylphenyl)imidazo[4,5-b]pyridin-2-ol",0.336†
6,"6-chloro-1-(ethylpropyl)-7-(5-fluoro(2-pyridyl))imidazo[4,5-b]pyridin-2-ol",0.268†
7,"6-chloro-1-(ethylpropyl)-7-(6-methoxy(2-pyridyl))imidazo[4,5-b]pyridin-2-ol",0.562†
8,"6-chloro-1-(ethylpropyl)-7-[4-(trifluoromethyl)phenyl]imidazo[4,5-b]pyridin-2-ol",0.274†

# Same assay, conditions: detergent treated myofibrils at pCa25%, 500 μM ATP; median value (no †)
row,Substance,AC1.4 Median
1,"1-(ethylpropyl)-7-phenylimidazo[4,5-b]pyridin-2-ol",2.083
2,"2-[6-chloro-1-(ethylpropyl)-2-hydroxyimidazo[4,5-b]pyridin-7-yl]benzamide",36.169
3,"2-[6-chloro-1-(ethylpropyl)-2-hydroxyimidazo[4,5-b]pyridin-7-yl]benzenecarbonitrile",2.886
4,"3-[6-chloro-1-(ethylpropyl)-2-hydroxyimidazo[4,5-b]pyridin-7-yl]benzenecarbonitrile",3.336
5,"6-[6-chloro-1-(ethylpropyl)-2-hydroxyimidazo[4,5-b]pyridin-7-yl]pyridine-3-carbonitrile",2.892
6,"6-chloro-1-(ethylpropyl)-7-(1-methyl(1H-indazol-5-yl))imidazo[4,5-b]pyridin-2-ol",5.365
7,"6-chloro-1-(ethylpropyl)-7-(1-methyl(1H-indazol-6-yl))imidazo[4,5-b]pyridin-2-ol",20.233
8,"6-chloro-1-(ethylpropyl)-7-(1-methylpyrazol-3-yl)imidazo[4,5-b]pyridin-2-ol",1.7950
9,"6-chloro-1-(ethylpropyl)-7-(1-methylpyrazol-4-yl)imidazo[4,5-b]pyridin-2-ol",17.805
10,"6-chloro-1-(ethylpropyl)-7-(2-fluoro-4-methoxyphenyl)imidazo[4,5-b]pyridin-2-ol",0.942
11,"6-chloro-1-(ethylpropyl)-7-(2-methoxy(4-pyridyl))imidazo[4,5-b]pyridin-2-ol",2.808
12,"6-chloro-1-(ethylpropyl)-7-(2-methyl(1,2,3,4-tetraazol-5-yl))imidazo[4,5-b]pyridin-2-ol",6.404
13,"6-chloro-1-(ethylpropyl)-7-(2-methyl(4-pyridyl))imidazo[4,5-b]pyridin-2-ol",14.091
14,"6-chloro-1-(ethylpropyl)-7-(2-methylphenyl)imidazo[4,5-b]pyridin-2-ol",1.688
15,"6-chloro-1-(ethylpropyl)-7-(2-pyridyl)imidazo[4,5-b]pyridin-2-ol",1.616
16,"6-chloro-1-(ethylpropyl)-7-(3-fluoro(4-pyridyl))imidazo[4,5-b]pyridin-2-ol",1.709
17,"6-chloro-1-(ethylpropyl)-7-(3-fluoro-4-methoxyphenyl)imidazo[4,5-b]pyridin-2-ol",2.102
18,"6-chloro-1-(ethylpropyl)-7-(3-hydroxyphenyl)imidazo[4,5-b]pyridin-2-ol",3.021
19,"6-chloro-1-(ethylpropyl)-7-(3-methoxyphenyl)imidazo[4,5-b]pyridin-2-ol",2.001
20,"6-chloro-1-(ethylpropyl)-7-(3-methylphenyl)imidazo[4,5-b]pyridin-2-ol",0.482
21,"6-chloro-1-(ethylpropyl)-7-(3-pyridyl)imidazo[4,5-b]pyridin-2-ol",8.030
22,"6-chloro-1-(ethylpropyl)-7-(4-methoxyphenyl)imidazo[4,5-b]pyridin-2-ol",0.728

row,Substance,AC1.4 Median
1,"6-chloro-1-(ethylpropyl)-7-(4-methyl(2-pyridyl))imidazo[4,5-b]pyridin-2-ol",11.301
2,"6-chloro-1-(ethylpropyl)-7-(4-pyridyl)imidazo[4,5-b]pyridin-2-ol",3.015
3,"6-chloro-1-(ethylpropyl)-7-(5-fluoro(3-pyridyl))imidazo[4,5-b]pyridin-2-ol",4.428
4,"6-chloro-1-(ethylpropyl)-7-(5-methyl(1,2,4-oxadiazol-3-yl))imidazo[4,5-b]pyridin-2-ol",4.017
5,"6-chloro-1-(ethylpropyl)-7-(5-methyl(2-pyridyl))imidazo[4,5-b]pyridin-2-ol",5.708
6,"6-chloro-1-(ethylpropyl)-7-(5-methylpyrimidin-2-yl)imidazo[4,5-b]pyridin-2-ol",18.694
7,"6-chloro-1-(ethylpropyl)-7-(6-methoxy(3-pyridyl))imidazo[4,5-b]pyridin-2-ol",2.232
8,"6-chloro-1-(ethylpropyl)-7-(6-methyl(2-pyridyl))imidazo[4,5-b]pyridin-2-ol",4.048
9,"6-chloro-1-(ethylpropyl)-7-(6-methyl(3-pyridyl))imidazo[4,5-b]pyridin-2-ol",12.164
10,"6-chloro-1-(ethylpropyl)-7-[2-(methoxymethyl)phenyl]imidazo[4,5-b]pyridin-2-ol",3.588
11,"6-chloro-1-(ethylpropyl)-7-[2-(trifluoromethyl)(4-pyridyl)]imidazo[4,5-b]pyridin-2-ol",3.590
12,"6-chloro-1-(ethylpropyl)-7-[3-(hydroxymethyl)phenyl]imidazo[4,5-b]pyridin-2-ol",14.377
13,"6-chloro-1-(ethylpropyl)-7-[3-(methoxymethyl)phenyl]imidazo[4,5-b]pyridin-2-ol",8.109
14,"6-chloro-1-(ethylpropyl)-7-[3-(trifluoromethoxy)phenyl]imidazo[4,5-b]pyridin-2-ol",2.369
15,"6-chloro-1-(ethylpropyl)-7-[4-(methoxymethyl)phenyl]imidazo[4,5-b]pyridin-2-ol",34.746
16,"6-chloro-1-(ethylpropyl)-7-[4-(trifluoromethoxy)phenyl]imidazo[4,5-b]pyridin-2-ol",0.781
17,"6-chloro-1-(ethylpropyl)-7-imidazolylimidazo[4,5-b]pyridin-2-ol",22.2909
18,"6-chloro-1-(ethylpropyl)-7-pyrazol-3-ylimidazo[4,5-b]pyridin-2-ol",26.881
19,"6-chloro-1-(ethylpropyl)-7-pyrazol-4-ylimidazo[4,5-b]pyridin-2-ol",38.791
20,"6-chloro-1-(ethylpropyl)-7-pyrazolylimidazo[4,5-b]pyridin-2-ol",0.3235
21,"6-chloro-1-(methylethyl)-7-pyrazolylimidazo[4,5-b]pyridin-2-ol",2.0829
